Reference: patent US20240317683A1, “METHODS OF TREATING MOOD DISORDERS” (priority 2020, published 2024)
Counter-ions that a name gives are not always drawn.

Key:
[1] = Metabolic stability in mouse liver microsomes (MLM); format: in vitro ADME, CD-1 mice; conditions: CD-1, mouse, pooled mouse liver microsomes, pH 7.4, NADPH
Method: (§1) MLM Stability. Pooled MLM from CD-1 mice (BIOIVT M00501) were used. Microsomal incubations were carried out in multi-well plates. […] Control incubations were performed by replacing the NADPH-cofactor system with PBS. Test compounds (1 μM, final solvent concentration 1.0%) were incubated with microsomes at 37° C. with constant shaking. Six time points over 60 minutes were analyzed, with 60 μL aliquots of the reaction mixture being drawn at each time point.

5-HT2A = 5-HT2A (Homo sapiens (Human), UniProt P28223); experiment: FLIPR Ca2+ flux agonist assay, 5-HT2A; format: cell-based
Method: (§2) A solution of 250 mM probenecid in 1 mL FLIPR assay buffer was prepared fresh. This was combined with a fluorescent dye (Fluo-4 Direct™) to make a final assay concentration of 2.5 mM. […] The fluorescent dye was then added to the assay plate along with assay buffer to a final volume of 40 μL. The cell plate was incubated for 50 min at 37° C. and 5% CO2 and placed into the FLIPR Tetra along with the compound plate. 10 μL of references and compounds were then transferred from the compound plate into the cell plate and the fluorescent signal was read.

[2] = test system: monoamine oxidase A and B (MAO-A and MAO-B); experiment: Stability in the presence of monoamine oxidases (human liver mitochondria); format: in vitro ADME; conditions: for MAO stability (in words): human liver mitochondria preparation; for half-life at 1 μM / microsomal CLint at 1 μM: human liver mitochondria, pH 7.4; for half-life at 1 μM / microsomal CLint at 1 μM / Remaining (t = 60 min): human mitochondrial preparation, 1 μM
Method: Liver Mitochondria Incubations. Human liver mitochondria (Xenotech H0610.M) were used. Mitochondrial incubations were carried out in multi-well plates. […] Six time points over 60 minutes were analyzed.

[3] = Stability in rat brain homogenate; format: in vitro ADME, Sprague Dawley rats; conditions: for half-life at 1 μM: male, Sprague Dawley; for half-life at 1 μM / % Compound Remaining (after 120 min): rat brain homogenate, 37° C., 1 μM
Method: Rat Brain Homogenate Stability. Frozen rat brain homogenate (pooled from male Sprague Dawley rats, BioreclamationIVT, RATOOBRAINMZA) was thawed in a water bath at 37° C. immediately prior to use. Positive controls and test compounds (final concentration in incubation medium=1 μM for test compounds and 2 μM for controls, all with 2% DMSO) were incubated in duplicate for each time point (0, 10, 30, 60, and 120 min) in the rat brain homogenate at a total reaction volume of 100 μL at 37° C. At the end of each incubation period, reactions were immediately quenched with 400 μL of acetonitrile containing internal standard (200 ng/ml tolbutamine and 200 ng/ml labetalol) and mixed thoroughly. Plates were then sealed, shaken for 20 min, and centrifuged at 4,000 rpm and 4° C. for 20 min. Aliquots of 50 μL of each supernatant were diluted into 100 uL of water and the mixtures were then shaken again for 10 min.

[4] = Pharmacokinetics in mice, plasma; format: in vivo, C57BL/6 mice; conditions: for AUC(0-t) / clearance / half-life / Cmax / Tmax: male, C57BL/6, mouse plasma; for F: mouse, based on plasma AUC0-last
Method: (§3) Animals. Male C57BL/6 mice, aged 8-12 weeks, were used in these studies. Four mice were housed in each cage. Temperature and humidity were maintained at 22±3° C. and 30-70%, respectively, and illumination was controlled to give a 12 h light and 12 h dark cycle. Temperature and humidity were recorded by an auto-controlled data logger system. All animals were provided laboratory rodent diet. Reverse osmosis water treated with ultraviolet light was provided ad libitum. Animals were randomly assigned to treatment groups.
(§4) Drugs. Compounds 4 and 5 were prepared as described above. All other compounds were commercially obtained. Test compounds were used as the hydrogen fumarate (1 and 2) or hydrochloride (3, 4, and 5) salts and were dissolved in a vehicle consisting of normal saline. They were then administered intravenously (IV) via the tail vein, subcutaneously (SC), or orally (PO) via gavage at a dose of 1 or 10 mg/kg (calculated based on the free base) and at a volume of 5 ml/kg body weight.
(§5) Sample Collection and Bioanalysis. Blood samples (approximately 60 μL) were collected under light isoflurane anesthesia (Surgivet®) from the retro orbital plexus at 0.08, 0.25, 0.5, 1, 2, 4, 8, and 24 h (4 animals per time point). Immediately after blood collection, plasma was harvested by centrifugation at 4,000 rpm for 10 min at 4° C. and samples were stored at −70±10° C. until bioanalysis. Following blood collection, animals were immediately sacrificed, the abdominal vena-cava was cut open, and the whole body was perfused from the heart using 10 mL of normal saline, and brain samples were collected from all animals. After isolation, brain samples were rinsed three times in ice-cold normal saline (for 5-10 seconds/rinse using ˜5-10 mL normal saline in disposable petri dish for each rinse) and dried on blotting paper. Brain samples were homogenized using ice-cold phosphate-buffered saline (pH 7.4). Total homogenate volume was three times the tissue weight. All homogenates were stored at −70±10° C. until bioanalysis. For bioanalysis, 25 μL aliquots of plasma/brain study samples or spiked plasma/brain calibration standards were added to individual pre-labeled micro-centrifuge tubes followed by 100 μL of an internal standard solution (glipizide, 500 ng/ml in acetonitrile) except for blanks, where 100 μL of acetonitrile was added. Samples were vortexed for 5 minutes and then centrifuged for 10 minutes at 4,000 rpm at 4° C. Following centrifugation, 100 μL of each clear supernatant was transferred to a 96 well plate and analyzed with a fit-for-purpose LC-MS/MS method, with authentic samples of each analyte used for calibration and identification.
(§6) Data Analysis. Pharmacokinetic parameters were estimated using the non-compartmental analysis tool of Phoenix® WinNonlin software (Ver 8.0).

[5] = Pharmacokinetics in mice, brain; format: in vivo, C57BL/6 mice; conditions: for half-life / Cmax / Tmax: male, C57BL/6; for half-life / Cmax / Tmax / AUC0-last: mouse brain; for F: mouse, based on brain AUC0-last
Method: as §3, §4, §5, §6

5-HT1A = 5-HT1A (Homo sapiens (Human), UniProt P08908); experiment: FLIPR Ca2+ flux agonist assay, 5-HT1A; format: cell-based; conditions: for 5-HT1A % Act @ Max Dose: Ca2+ flux, CHO cells
Method: as §2

[6] = Metabolic stability in rat liver microsomes (RLM); format: in vitro ADME; conditions: both sexes, pooled rat liver microsomes, pH 7.4, NADPH
Method: as §1, with “RLM” for “MLM”, “adult male and female donors (Xenotech R1000)” for “CD-1 mice (BIOIVT M00501)”

[7] = IV, 10 mg/kg, read-out: Cmax (C0 back-extrapolated to t = 0)

In the case of CCN(C)CCc1c[nH]c2ccc(F)cc12 [Compound 4, N-ethyl-2-(5-fluoro-1H-indol-3-yl)-N-methylethan-1-amine hydrochloride], the half-life at 1 μM [1] is reported as 47.6 min, the microsomal CLint at 1 μM [1] is reported as 29.1 µL/min/mg and the “selectivity for 5-HT2A over 5-HT2B (in words)” value (5-HT2A) is reported as “highly selective”. For the same compound, the “5-HT2A % Act @ Max Dose” value (5-HT2A; HEK293) was 87.6%, the EC50 (5-HT2A; HEK293) was 0.0206 µM and the “MAO stability (in words)” value [2] was “intermediate stability”. For the same compound, the half-life at 1 μM [2] was over 145 min, the microsomal CLint at 1 μM [2] was under 15.9 µL/min/mg and the “Remaining (t = 60 min)” value [2] was 75.0%. For the same compound, the “stability in rat brain homogenate (in words)” value [3] was “intermediate stability”, the half-life at 1 μM [3] was 183 min and the “% Compound Remaining (after 120 min)” value [3] was 62.0%. It also gave an AUC(0-t) ([4]; IV, 10 mg/kg) of 1790 ng·h/mL, a clearance ([4]; IV, 10 mg/kg) of 92.8 mL/min/kg and a half-life ([4]; IV, 10 mg/kg) of 51.6 min. It also gave a Cmax [4, 7] of 2910 ng/mL, an AUC(0-t) ([4]; SC, 1 mg/kg) of 57.5 ng·h/mL and a Tmax ([4]; SC, 1 mg/kg) of 4.8 min. For the same compound, the half-life ([4]; SC, 1 mg/kg) was 27 min, the Cmax ([4]; SC, 1 mg/kg, read-out: Cmax) was 83.2 ng/mL and the AUC(0-t) ([4]; SC, 10 mg/kg) was 1170 ng·h/mL. The Tmax ([4]; SC, 10 mg/kg) was 30 min, the half-life ([4]; SC, 10 mg/kg) was 54 min and the Cmax ([4]; SC, 10 mg/kg, read-out: Cmax) was 631 ng/mL. The AUC(0-t) ([4]; oral, 10 mg/kg) was 623 ng·h/mL, the Tmax ([4]; oral, 10 mg/kg) was 15 min and the half-life ([4]; oral, 10 mg/kg) was 80.4 min. For the same compound, the Cmax ([4]; oral, 10 mg/kg, read-out: Cmax) was 272 ng/mL, the F ([4]; SC, 1 mg/kg) was 32% and the F ([4]; SC, 10 mg/kg) was 65%. It also gave an F ([4]; oral, 10 mg/kg) of 35%, a half-life ([5]; IV, 10 mg/kg) of 56.4 min and a Cmax [5, 7] of 7980 ng/g. It also gave a Tmax ([5]; SC, 1 mg/kg) of 15 min, a half-life ([5]; SC, 1 mg/kg) of 22.2 min and a Cmax ([5]; SC, 1 mg/kg, read-out: Cmax) of 461 ng/g. For the same compound, the Tmax ([5]; SC, 10 mg/kg) was 60 min, the half-life ([5]; SC, 10 mg/kg) was 49.2 min and the Cmax ([5]; SC, 10 mg/kg, read-out: Cmax) was 3510 ng/g. It also gave a Tmax ([5]; oral, 10 mg/kg) of 15 min, a half-life ([5]; oral, 10 mg/kg) of 79.2 min and a Cmax ([5]; oral, 10 mg/kg, read-out: Cmax) of 1400 ng/g. The AUC0-last ([5]; IV, 10 mg/kg) was 10,471.19 h*ng/g, the AUC0-last ([5]; SC, 1 mg/kg) was 320.97 ng·h/g and the AUC0-last ([5]; SC, 10 mg/kg) was 6,672.16 h*ng/g. For the same compound, the AUC0-last ([5]; oral, 10 mg/kg) was 3,835.86 h*ng/g, the F ([5]; SC, 1 mg/kg) was 31% and the F ([5]; SC, 10 mg/kg) was 64%. The F ([5]; oral, 10 mg/kg) was 37%, the EC50 (5-HT1A) was 16.9 µM and the “5-HT1A % Act @ Max Dose” value (5-HT1A) was 83.01%. For the same compound, the half-life at 1 μM [6] was 6.1 min and the microsomal CLint at 1 μM [6] was 229 µL/min/mg.
Work on CCN(C)CCc1c[nH]c2ccccc12 [Compound 2, methylethyltryptamine] yielded a half-life at 1 μM [1] of 102 min, a microsomal CLint at 1 μM [1] of 13.6 µL/min/mg and an Emax (5-HT2A) of 36.2%. For the same compound, the “selectivity for 5-HT2A over 5-HT2B (in words)” value (5-HT2A) was “highly selective”, the “5-HT2A % Act @ Max Dose” value (5-HT2A; HEK293) was 36.2% and the “MAO stability (in words)” value [2] was “intermediate stability”. For the same compound, the half-life at 1 μM [2] was over 145 min, the microsomal CLint at 1 μM [2] was under 15.9 µL/min/mg and the “Remaining (t = 60 min)” value [2] was 84.5%. The “stability in rat brain homogenate (in words)” value [3] was “high stability”, the half-life at 1 μM [3] was over 289 min and the “% Compound Remaining (after 120 min)” value [3] was 76.5%. It also gave an AUC(0-t) ([4]; IV, 10 mg/kg) of 545 ng·h/mL, a clearance ([4]; IV, 10 mg/kg) of 304 mL/min/kg and a half-life ([4]; IV, 10 mg/kg) of 88.8 min. For the same compound, the Cmax [4, 7] was 963 ng/mL, the AUC(0-t) ([4]; oral, 10 mg/kg) was 238 ng·h/mL and the Tmax ([4]; oral, 10 mg/kg) was 15 min. It also gave a half-life ([4]; oral, 10 mg/kg) of 82.2 min, a Cmax ([4]; oral, 10 mg/kg, read-out: Cmax) of 102 ng/mL and an F ([4]; oral, 10 mg/kg) of 44%. The half-life ([5]; IV, 10 mg/kg) was 92.4 min, the Cmax [5, 7] was 6250 ng/g and the Tmax ([5]; oral, 10 mg/kg) was 30 min. For the same compound, the half-life ([5]; oral, 10 mg/kg) was 451 min, the Cmax ([5]; oral, 10 mg/kg, read-out: Cmax) was 957 ng/g and the AUC0-last ([5]; IV, 10 mg/kg) was 3,923.27 h*ng/g. The AUC0-last ([5]; oral, 10 mg/kg) was 1,988.41 h*ng/g, the F ([5]; oral, 10 mg/kg) was 51% and the EC50 (5-HT1A) was 59.5 µM. The “5-HT1A % Act @ Max Dose” value (5-HT1A) was 73.6%, the half-life at 1 μM [6] was 0.9 min and the microsomal CLint at 1 μM [6] was 1560 µL/min/mg.
